Measurements published in US8853227B2, “Methotrexate adjuvants to reduce toxicity and methods for using the same” (Tosk, Incorporated, priority 2008, dated 2014).

Legend:
[1] = tested on: Wild-type (Oregon-R) Drosophila melanogaster; test: Fly Study II, MTX lethality in wild-type flies; type: in vivo
Experimental: Embryos of UPase knockout (19519) Drosophila melanogaster were orally exposed to a dose range of MTX doses in food admix. Embryos of Wild-type (Oregon-R) were orally exposed to the same dose range of MTX in presence and absence of 0.04 mg TK-112690. Scoring was based on life or death 15 days after initiation of MTX exposure. […] Wild-type D. melanogaster are sensitive to lethal effects of 0.1 mg MTX.
The aim of this study was to evaluate the lethal effects of a range (0.001, 0.01, 0.05, 0.1, 0.2, 0.4 mg) of doses of orally fed MTX in wild-type (Ore-R) and UPase mutant Drosophila melanogaster. Embryos of UPase knockout (19519) Drosophila melanogaster were orally exposed to a dose range of MTX (0.001, 0.01, 0.05, 0.1, 0.2, 0.4 mg) in food admix. Embryos of Wild-type (Oregon-R) were orally exposed to the same dose range of MTX in presence and absence of 0.04 mg TK-112690. Scoring was based on life or death 15 days after initiation of MTX exposure.

[2] = tested on: Drosophila melanogaster; test: Fly Study I (protection from MTX-induced lethality); type: in vivo; conditions: for Flies Alive (Number): Fly Study I method, test compound + MTX (MTX Alone: no adjuvant), Table 3
Experimental: In this study, Drosophila melanogaster eggs (50 eggs per vial) were treated with either 0.005 mg TK-112690+0.4 mg MTX (Group 1), 0.01 mg TK-112690+0.4 mg MTX (Group 2), 0.04 mg TK-112690+0.4 mg MTX (Group 3), 0.1 mg TK-112690+0.4 mg MTX (Group 4), 0.4 mg MTX alone (Group 5) or saline blank (Group 6). Two vials of eggs for each dose group were evaluated for viability (viable flies plus pupae).
The efficacy of cancer chemotherapy can be improved if agents are available to reduce the adverse events associated with treatment with cytotoxic agents. To this end, Drosophila melanogaster (commonly know as the fruit fly) is an ideal organism to screen chemical compounds for such side-effect-reducing agents. This study is aimed at finding a dose of a 2,2′-anhydropyrimidine test article that protects against MTX-induced lethality in insects.
Increasing amounts of a 2,2′-anhydropyrimidine test article (typically 0.03 to 0.1 mg) are mixed in an aqueous solution with 0.3 (or 0.4) mg MTX. Four milliliters (mL) of a 2,2′-anhydropyrimidine test article+MTX solutions are added to an appropriate amount of instant fly medium. Fruit fly eggs are added to a 2,2′-anhydropyrimidine test article+MTX treated medium and incubated for up to 31 days. After the 31 day incubation, each assay is scored by the number of mature fly and pupae per vial.
The assays are set up in clear sterile polystyrene narrow diameter vials from Applied Scientific (Hampton, N.H.). Vials are stored in trays and incubated in a darkened 25° C. incubator.
Reagents and materials used are: 50 mg/mL MTX in H2O (pH 8), 20 mg/mL of the 2,2′-anhydropyrimidine test article in H2O, water, sterile polystyrene narrow diameter vials from Applied Scientific, Instant Drosophila Food Medium, Oregon-R Drosophila melanogaster, 25° C. incubator, and 15 mL polystyrene conical tubes
Each assay is performed in a separate fly vial. Increasing amounts of a 2,2′-anhydropyrimidine (0.005 to 1.0 mg) are tested for MTX side-effect-reduction on fly eggs. Amounts of the 2,2′-anhydropyrimidine test article are drawn from a 20 mg/mL stock solution dissolved in water. Nine mL of the 2,2′-anhydropyrimidine+0.3 (or 0.4) mg MTX solutions are pre-mixed with water in a 15 mL conical tube. Duplicate assays receive 4 mL of the 2,2′-anhydropyrimidine test article+0.3 (or 0.4) mg MTX solutions. Pre-measured amounts of instant drosophila medium are added to each assay to achieve optimal hydration level. Controls are (1) 4 mL water alone and (2) 0.3 (or 0.4) mg MTX alone. Precisely 50 fly eggs aged for ˜18 hours are added to each assay. Assays are capped with a fitted plug and incubated for 30 days in a darkened 25° C. incubator. Assays are scored by the number of dead pupae or adult flies per vial.

| Structure (SMILES) | MTX dose lethal to wild-type flies ([1]; oral in food admix, 15 days after initiation of MTX exposure) [mg] | effect of MTX on lethality in the flies ([2]; 0.4 mg MTX alone vs saline, p<0.01) | Flies Alive (Number) [2] | sensitivity of wild-type flies to lethal effects of MTX in the presence of TK-112690 ([1]; 0.04 mg TK-112690, MTX 0.001-0.4 mg oral, 15 days) | methotrexate dose from whose lethality TK-112690 protects ([1]; 0.04 mg TK-112690, wild-type flies, 15 days) [mg] | protection from MTX lethality in flies (viable flies plus pupae) ([2]; 0.005 to 0.1 mg TK-112690 + 0.4 mg MTX, p<0.01 vs MTX alone or saline) |
| --- | --- | --- | --- | --- | --- | --- |
| CN(Cc1cnc2nc(N)nc(N)c2n1)c1ccc(C(=O)N[C@@H](CCC(=O)O)C(=O)O)cc1 [MTX, N-[4-[[(2,4-diamino-6-pteridinyl)methyl]methylamino]benzoyl]-L-glutamic acid, reference compound] | 0.1 | highly significant | 0 |  |  |  |
| Cc1cn2c(nc1=O)O[C@H]1[C@H](O)[C@@H](CO)O[C@H]12 [TK-112690, 2,2′-anhydro-5-methyluridine] |  |  | 8 | resistant to the lethal effects | ≤ 0.4 | highly significant |
